Experimental data taken from US20190327974A1, “SYNERGISTS FOR IMPROVED PESTICIDES” (priority 2017, published 2019).
Like-named read-outs stand apart in the source and are kept apart here.

Tests used:
[1] = system: Ostrinia nubilalis (European corn borer); assay: CPE combined with boronic acid derivatives on corn leaves; format: in vivo
Experimental: Treatments were performed by spraying a volume of mixture corresponding to 200 l/ha. 4 boxes/condition.
Drying 1 h at 20° C.; Deposit of three leaf fragments per box on water agar (4 box/condition); Infection of each leaf fragment with 4 Ostrinia nubilalis (12 larvae/box); Incubation 18° C./28° C. […] The percentage of mortality was calculated for each assessment times. Statistical analysis of the data was performed with XLSTAT® software (ANOVAs followed by Newman-Keuls tests with a threshold of 5%, see Table below).

293T = assay: Cell toxicity panel, viability (luminescence); format: cell-based; conditions: Homo sapiens, HEK-293T; Readout: Luminescence; read-out: IC50 Viability Cells, Cell line: 293T
Experimental: (§1) To further establish the safety and cell toxicity of compounds according to this invention, their IC50 in killing a broad panel of human cell lines (including both cancerous and non-cancerous) cell lines was determined, and their cell toxicity was tested.

Hela = assay: Cell toxicity panel, viability (luminescence); format: cell-based, human; conditions: Readout: Luminescence, read-out: IC50 Viability Cells, Cell line: Hela
Experimental: as §1

H23 = assay: Cell toxicity panel, viability (luminescence); format: cell-based, human; conditions: Readout: Luminescence, read-out: IC50 Viability Cells, Cell line: H23
Experimental: as §1

Colo205 = assay: Cell toxicity panel, viability (luminescence); format: cell-based, human; conditions: Readout: Luminescence, read-out: IC50 Viability Cells, Cell line: Colo205
Experimental: as §1

PC3 = assay: Cell toxicity panel, viability (luminescence); format: cell-based, human; conditions: Readout: Luminescence, read-out: IC50 Viability Cells, Cell line: PC3
Experimental: as §1

HCT116 = assay: Cell toxicity panel, viability (luminescence); format: cell-based, human; conditions: Readout: Luminescence, read-out: IC50 Viability Cells, Cell line: HCT116
Experimental: as §1

HT29 = assay: Cell toxicity panel, viability (luminescence); format: cell-based, human; conditions: Readout: Luminescence, read-out: IC50 Viability Cells, Cell line: HT29
Experimental: as §1

HB-2 cells = assay: Cellular toxicity, Cell Titer Glo; format: cell-based, human; conditions: for IC50: Homo sapiens, 48 h incubation, Cell Titer Glo, read-out: Viability IC50 HB-2
Experimental: (§2) A seven-point, two-fold dose response series, with a 100 uM as the upper limit and a DMSO-only control point was generated using an Echo 550 liquid handler (Labcyte Inc.) in 384-well plates. Subsequently, the human breast cell lines MDA-MB-231 (tumorigenic) and HB2 (non-tumorigenic) were seeded (1000 cells/well) using a multi-drop Combi (Thermo Fisher Scientific) on top of the compounds. Plates were then incubated at 37° C. and 5% CO2 for 48 hours upon which cell viability was assessed by adding CellTiter-Glo® (Promega) to the reaction. The luminescence signal was measured on a Pherastar FS multi-mode plate reader (BMG Labtech).

MDA-MB-231 cells = assay: Cellular toxicity, Cell Titer Glo; format: cell-based, human; conditions: for IC50: Homo sapiens, MDA-MB-231, 48 h incubation, Cell Titer Glo, read-out: Viability IC50 MDA-MB-231
Experimental: as §2

[2] = molecular target: T1, Electrophorus electricus AChE (Electrophorus electricus, UniProt O42275); assay: AChE selectivity (Ellman, acetylthiocholine); format: biochemical; conditions: for Ki: tested to solubility limit, read-out: Ki Ee AChE
T1 construct: purchased Sigma Type V-S
Experimental: Initially, the KM for AChE with the substrate acetylthiocholine was determined by monitoring thiocholine production with 5,5′-dithiobis(2-nitrobenzoic acid) (DTNB) at 412 nm. Acetylthiocholine was prepared in assay buffer (100 mM NaH2PO4 pH 7.4) to 10 mM and serially diluted 1-in-2 to achieve concentrations from 10 mM to 0.08 mM while AChE was prepared in 20 mM NaH2PO4 pH 7.0 supplemented with 4 mg/ml BSA to 0.4 nM. […] The reaction was initiated by the addition of 20 μl AChE (40 pM final concentration). Product formation was monitored for six minutes at room temperature and the initial rates of thioester hydrolysis were determined by linear regression using GraphPad Prism. The Michalis constant was determined as before (FIG. 10).
AChE inhibition was determined by assaying the initial rate of acetylthiocholine hydrolysis in the presence of either neat DMSO or the boronic acid compounds in DMSO. […] Reactions were prepared by pipetting 178 μl assay buffer supplemented with acetylthiocholine (to a final concentration of 100 μM) and DTBN (to a final concentration of 300 μM) into wells of a 96-well plate. […] The reaction was initiated by the addition of 20 μl enzyme (final concentration 40 pM). Product formation was monitored for six minutes at room temperature and the initial rates of thioester hydrolysis were determined by linear regression. IC50 and Ki values were determined as described previously (FIG. 9).

[3] = system: Lucilia cuprina larvae, laboratory drug-susceptible strain LS; assay: Lucilia cuprina larval bioassay (pupation rate), laboratory strain; format: in vivo; conditions: for synergism with diazinon (in words): susceptible strain
Experimental: Inhibitor efficacy was determined by treating larvae with diazinon over a range of concentrations, in the presence or absence of the compounds at constant concentrations, and comparing pupation rates.
Two strains of L. cuprina were used: 1) a laboratory reference drug-susceptible strain, LS, derived from collections in the Australian Capital Territory over 40 years ago, with no history of exposure to insecticides; and 2) a field-collected strain, Tara, resistant to diazinon and diflubenzuron (Levot, G. W. & Sales, N. New high level resistance to diflubenzuron detected in the Australian sheep blowfly, Lucilia cuprina (Wiedemann) (Diptera: Calliphoridae). Gen. Appl. Entomol. 31, 43-46 (2002)). The LcαE7 gene was sequenced in each of the strains. Briefly, genomic DNA was prepared from 20 adult female flies from each strain using the DNeasy Blood and Tissue kit (Qiagen). PCR was performed with primers specific to the LcαE7 gene, and the product was cloned into a pGEM-T EASY vector (Promega). Eight clones of the susceptible strain and 10 clones of the resistant strain were sequenced using M13 forward and reverse primers.
Each experiment utilized 50 larvae at each diazinon/malathion concentration. Experiments were replicated three times for diazinon, and twice for malathion. The insecticidal effects were defined by measuring the pupation rate. […] Compounds were also without diazinon or malathion at 1 mg per assay.

[4] = 1 DAT, CPE 2.5 g a.i./ha, boronic acid, where present, 0.2 mg/ml
[5] = 1 DAT, CPE 6.24 g a.i./ha, boronic acid, where present, 0.2 mg/ml
[6] = 1 DAT, CPE 15.6 g a.i./ha, boronic acid, where present, 0.2 mg/ml
[7] = 1 DAT, CPE 39 g a.i./ha, boronic acid, where present, 0.2 mg/ml
[8] = 3 DAT, CPE 2.5 g a.i./ha, boronic acid, where present, 0.2 mg/ml
[9] = 3 DAT, CPE 6.24 g a.i./ha, boronic acid, where present, 0.2 mg/ml
[10] = 3 DAT, CPE 15.6 g a.i./ha, boronic acid, where present, 0.2 mg/ml
[11] = 3 DAT, CPE 39 g a.i./ha, boronic acid, where present, 0.2 mg/ml
[12] = 6 DAT, CPE 2.5 g a.i./ha, boronic acid, where present, 0.2 mg/ml
[13] = 6 DAT, CPE 6.24 g a.i./ha, boronic acid, where present, 0.2 mg/ml
[14] = 6 DAT, CPE 15.6 g a.i./ha, boronic acid, where present, 0.2 mg/ml
[15] = 6 DAT, CPE 39 g a.i./ha, boronic acid, where present, 0.2 mg/ml

T1 sequence (O42275 24-633): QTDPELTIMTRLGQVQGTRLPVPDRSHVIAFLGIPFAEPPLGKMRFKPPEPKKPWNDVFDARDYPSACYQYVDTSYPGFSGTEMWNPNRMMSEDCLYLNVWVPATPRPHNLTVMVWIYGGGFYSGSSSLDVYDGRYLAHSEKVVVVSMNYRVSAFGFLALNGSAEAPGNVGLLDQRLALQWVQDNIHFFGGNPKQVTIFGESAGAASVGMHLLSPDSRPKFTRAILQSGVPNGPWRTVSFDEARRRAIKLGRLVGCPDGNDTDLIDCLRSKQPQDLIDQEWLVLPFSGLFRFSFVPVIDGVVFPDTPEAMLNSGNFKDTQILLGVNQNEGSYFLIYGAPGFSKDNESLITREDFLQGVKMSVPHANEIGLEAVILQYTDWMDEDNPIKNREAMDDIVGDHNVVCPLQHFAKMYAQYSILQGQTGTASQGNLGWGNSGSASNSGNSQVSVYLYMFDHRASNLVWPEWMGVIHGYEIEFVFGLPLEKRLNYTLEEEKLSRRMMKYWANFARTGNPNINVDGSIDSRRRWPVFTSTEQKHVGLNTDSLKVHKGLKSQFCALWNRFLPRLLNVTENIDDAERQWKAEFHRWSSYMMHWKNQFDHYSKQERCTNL

CCOP(=S)(OCC)Oc1nc(Cl)c(Cl)cc1Cl [CPE, Chlorpyrifos-ethyl]
Evaluation of Larvae number, Mean [1, 4]: 12 | Percentage of efficacy [1, 4]: 0% | Evaluation of Larvae number, Mean [1, 5]: 10.7 | Percentage of efficacy [1, 5]: 11% | Evaluation of Larvae number, Mean [1, 6]: 7.3 | Percentage of efficacy [1, 6]: 40% | Evaluation of Larvae number, Mean [1, 7]: 3.3 | Percentage of efficacy [1, 7]: 72% | Evaluation of Larvae number, Mean [1, 8]: 12 | Percentage of efficacy [1, 8]: 0% | Evaluation of Larvae number, Mean [1, 9]: 9.7 | Percentage of efficacy [1, 9]: 16% | Evaluation of Larvae number, Mean [1, 10]: 7 | Percentage of efficacy [1, 10]: 39% | Evaluation of Larvae number, Mean [1, 11]: 2 | Percentage of efficacy [1, 11]: 83% | Evaluation of Larvae number, Mean [1, 12]: 8 | Percentage of efficacy [1, 12]: 26% | Evaluation of Larvae number, Mean [1, 13]: 4 | Percentage of efficacy [1, 13]: 63% | Evaluation of Larvae number, Mean [1, 14]: 3.5 | Percentage of efficacy [1, 14]: 67% | Evaluation of Larvae number, Mean [1, 15]: 1.3 | Percentage of efficacy [1, 15]: 88%

Cc1ccc(B(O)O)cc1Br [Compound 1]
IC50 (293T): > 99.8 µM | IC50 (Hela; Homo sapiens, HeLa): 37.9 µM | IC50 (H23; Homo sapiens, NCI-H23): > 99.8 µM | IC50 (Colo205; Homo sapiens, COLO 205): > 99.8 µM | IC50 (PC3; Homo sapiens, PC-3): > 99.8 µM | IC50 (HCT116; Homo sapiens, HCT-116): > 99.8 µM | IC50 (HT29; Homo sapiens, HT-29): > 99.8 µM | IC50 (HB-2 cells): > 100 µM | IC50 (MDA-MB-231 cells): > 100 µM | Ki [2]: > 1000 µM

OB(O)c1cc(Br)cc(N2CCCC2)c1 [Compound 3]
IC50 (293T): > 99.8 µM | synergism with diazinon (in words) [3]: synergism was observed | IC50 (Hela; Homo sapiens, HeLa): 8.1 µM | IC50 (H23; Homo sapiens, NCI-H23): > 99.8 µM | IC50 (Colo205; Homo sapiens, COLO 205): > 99.8 µM | IC50 (PC3; Homo sapiens, PC-3): > 99.8 µM | IC50 (HCT116; Homo sapiens, HCT-116): > 99.8 µM | IC50 (HT29; Homo sapiens, HT-29): > 99.8 µM | IC50 (HB-2 cells): > 100 µM | IC50 (MDA-MB-231 cells): > 100 µM | Ki [2]: 270 µM | inhibition of Electrophorus electricus acetylcholinesterase ([2]; tested to solubility limits (FIG. 9)): > 50%

OB(O)c1cc(Br)cc(N2CCOCC2)c1 [Compound 3.1]
Evaluation of Larvae number, Mean ([1]; 1 DAT, boronic acid alone 0.2 mg/ml, 12 larvae/box): 12 | Evaluation of Larvae number, Mean ([1]; 3 DAT, boronic acid alone 0.2 mg/ml, 12 larvae/box): 12 | Evaluation of Larvae number, Mean ([1]; 6 DAT, boronic acid alone 0.2 mg/ml, 12 larvae/box): 8.3 | reduction of diazinon EC50 compared to a diazinon only control ([3]; susceptible laboratory strain): 5.7 fold | IC50 (Hela): > 99.8 µM | IC50 (H23): > 99.8 µM | IC50 (Colo205): > 99.8 µM | IC50 (PC3): > 99.8 µM | IC50 (HCT116): > 99.8 µM | IC50 (HT29): > 99.8 µM

OB(O)c1cc(Br)cc(OCc2ccccc2)c1 [Compound 3.9]
IC50 (293T): > 99.8 µM | synergism with diazinon (in words) [3]: synergism was observed | IC50 (Hela; Homo sapiens, HeLa): 2.1 µM | IC50 (H23; Homo sapiens, NCI-H23): 99.3 µM | IC50 (Colo205; Homo sapiens, COLO 205): > 99.8 µM | IC50 (PC3; Homo sapiens, PC-3): > 99.8 µM | IC50 (HCT116; Homo sapiens, HCT-116): > 99.8 µM | IC50 (HT29; Homo sapiens, HT-29): 72.8 µM | toxicity to HB-2 cells (in words) (HB-2 cells; 48 h, up to 100 μM): do not exhibit any cellular toxicity | toxicity to MDA-MB-231 cells (in words) (MDA-MB-231 cells; 48 h, up to 100 μM): do not exhibit any cellular toxicity
